The test system of one assay is Aspc-1 cells. The assay can be described thus: Cell proliferation study (Cell Titer Glo, 72 hours). The format is cell-based. The note with it: Homo sapiens, ASPC1, read-out: IC50, inhibitory effect on cellular proliferation. How it is done:
Aspc-1 (Cobioer, CBP60546) cells were grown in RPMI 1640 (Gibco, 61870127) supplemented with 10% fetal bovine serum (Gibco, 10099141), 1% penicillin-streptomycin (Gibco, 15070-063). Aspc-1 cells in exponential growth phase were seeded into 96-well plate (Corning, 3599) at density of 4×10^3/well. Cells were cultured overnight at 37° C. with 5% CO2. On the next day, cells were treated with compound at various concentrations for 72 hours in 37° C., 5% CO2 incubator (final DMSO concentration is 0.1%). After treatment, the cell plates were added 100 μL Cell Tier Glo (Promega, G7573) to every well and incubated at RT for 10 minutes. Cell growth status was measured with Cell Tier Glo (Promega, G7573) following manufacturer's directions. The inhibition curve was obtained with GraphPad 7.0 software using four-parameter equation.
(In general: ATP-based viability assays read luminescence as a measure of living cells.)

The next assay has as its target T1, KRAS^G12D protein (Homo sapiens, UniProt P01116, G12D).
T1 construct: host or cells: Aspc-1 (AsPC-1) cells
The assay can be described thus: Protein degradation study (western blot) in Aspc-1 cells. The format is cell-based. The note with it: for inhibition at 0.005 µM / inhibition at 0.05 µM: ASPC1, 24 h, 24 hours, read-out: Rate of degradation; for inhibition at 0.005 µM: Aspc-1 cells treated with 0.005 μM compound; for inhibition at 0.05 µM: Aspc-1 cells treated with 50 nM compound; for DC50: Aspc-1 cells, half-maximum degradation concentration, read-out: DC50 of compounds induced Ras G12D protein degradation. How it is done:
Aspc-1 (Cobioer, CBP60546) cells in exponential growth phase were inoculated on a 6-well cell culture plate (Corning, 3516) at density of 1E6/well; and cells in the plate were cultured in 37° C. incubator containing 5%-carbon dioxide. The next day, testing compounds were dissolved in DMSO (Sigma, RNBF5902) for the preparation of a 10-mM concentration stock solution. The stock solution was diluted with complete medium (RPMI-1640 supplemented with 10% fetal bovine serum, 1% penicillin-streptomycin), yielding working solutions of various concentrations. The plate, after the addition of compounds, was placed in a 5% carbon dioxide incubator, and incubated at 37° C. for 24 hours (final DMSO concentration was 0.1%). The plate was then removed from the incubator, and the cells were washed twice with precooled PBS (Gibco, 14190250), followed by addition of 80-μL RIPA lysis buffer (containing protease inhibitor (Invitrogen™, AM2696)) to each well. The adherent cells were scraped off with a cell scraper, and the cell lysate was transferred to a 1.5-mL centrifuge tube followed with a 30-minute incubation on ice. The lysate was then clarified with centrifugation at 14000 rpm for 10 min at 4° C. The supernatant was transferred into a new 1.5-mL centrifuge tube, and protein concentration was measured with BCA protein detection kit (Thermo Fisher, 23225). G12D protein level was assessed by western blot.
A mixture of cell lysate (40 μL) and loading buffer (10 μL, 5×SDS (Beyotime, P0015L)) was denatured in a water-bath at 95° C. for 10 min. The denatured protein sample, at 30 μL/well, was loaded into corresponding well of 4-20% Bis-Tris gel (Kingsley, M00656). Protein samples were initially electrophoresed at 80 V for 30 minutes, followed by 120 V for 40 minutes, until the bromophenol blue strip ran to an appropriate position. After electrophoresis, iBlot2 (Life Technologies, IB21001) was used to transfer the separated samples onto PVDF film. The PVDF membrane was washed with double-distilled water and then blocked in TBST (Thermo Scientific, 28360) buffer containing 5% non-fat milk, for 2 hours. Blocked membrane was rinsed with tris-buffered saline tween-20 (Thermo Scientific, 28360, TBST) three times, 10 minutes each. Membrane was then incubated with 1:1000 diluted KRAS primary antibody (CST, cat #14429S) overnight at 4° C. Membrane was rinsed in a way described previously followed by 1 hour incubation of secondary antibody at room temperature. After washing the film for three times with TBST, ECL color developing solution was applied, and image was captured with Biorad Chemi Doc gel imager. The band gray value was quantified (Image Lab), and protein degradation level was calculated according to the following formula:
Level of RAS protein expression=(RAS-compound/GAPDH)/(RAS-DMSO/GAPDH)
Level of degradation (%)=(1−Rate of RAS protein expression)×100
Symbols of −, +, ++, +++ indicate that the degradation level of Ras protein induced by testing compounds are […], 11 to 30%, 31 to 60% and greater than 60%, respectively.
Half-maximum degradation concentrations (DC50s) of testing compounds were calculated using GraphPad Prism and their values were shown in Table 6. Symbols of […] represent DC50s equal or less than 10 nM, 11-50 nM, 51-100 nM, and 101-200 nM, respectively.

Bounds are passed on as bounds.

T1 sequence (P01116 1-188 isoform P01116-2 G12D): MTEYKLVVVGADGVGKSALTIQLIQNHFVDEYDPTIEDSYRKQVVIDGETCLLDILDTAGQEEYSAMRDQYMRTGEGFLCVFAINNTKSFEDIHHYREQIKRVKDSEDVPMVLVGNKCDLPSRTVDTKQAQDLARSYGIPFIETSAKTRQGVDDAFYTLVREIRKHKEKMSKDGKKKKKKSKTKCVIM

The DC50 is the midpoint of the concentration-degradation curve. `C#Cc1c(F)ccc2cc(O)cc(-c3ncc4c(N5CC6CCC(C5)N6)nc(OCC5(CN6CC7(CCC(N8CCC(c9ccc%10c(C%11CCC(=O)NC%11=O)nn(C)c%10c9)CC8)CC7)C6)CC5)nc4c3F)c12` (centres unmarked) [Compound 31a]: the IC50 with Aspc-1 cells is less than 100 nM. In addition, at KRAS^G12D protein, the inhibition at 0.005 µM is more than 60%, the inhibition at 0.05 µM is more than 60% and the DC50 is less than 10 nM.
With `Cn1nc(C2CCC(=O)NC2=O)c2ccc(C3CCN(C4CC5(CCN(CC6(COc7nc(N8CC9CCC(C8)N9)c8cnc(-c9cc(N)cc(Cl)c9C(F)(F)F)c(F)c8n7)CC6)CC5)C4)CC3)cc21` (centres unmarked) [Compound 17a], the IC50 in the assay on Aspc-1 cells is less than 100 nM. For the same molecule, at KRAS^G12D protein, the inhibition at 0.005 µM was more than 60%, the inhibition at 0.05 µM was more than 60% and the DC50 was less than 10 nM.
